Laboratory results reported in the NIST ThermoML archive (doi:10.1016/j.jct.2016.04.014).
± gives the expanded uncertainty stated by the source.

Test: xn = mol fraction of the nth substance listed
Details: Liquid, Vibrating tube method

CCCCCCCC [octane] + CCO
mass density [kg/m3]
Details	100 kPa	500 kPa	5000 kPa	10000 kPa	15000 kPa	20000 kPa	25000 kPa	30000 kPa	35000 kPa	40000 kPa
293.15 K, x1 = 0.2492	743.9 ± 1.7	744.3 ± 1.7	748.2 ± 1.7	752.3 ± 1.7	756.2 ± 1.7	759.9 ± 1.7	763.4 ± 1.7	766.8 ± 1.7	770 ± 1.8	773.2 ± 1.8
293.15 K, x1 = 0.4999	722.3 ± 1.7	722.6 ± 1.8	726.5 ± 1.7	730.6 ± 1.7	734.4 ± 1.7	738.1 ± 1.7	741.6 ± 1.7	744.9 ± 1.8	748.1 ± 1.8	751.2 ± 1.8
293.15 K, x1 = 0.7503	709.6 ± 1.7	709.9 ± 1.7	713.7 ± 1.7	717.7 ± 1.7	721.5 ± 1.7	725.1 ± 1.7	728.6 ± 1.8	731.9 ± 1.8	735 ± 1.8	738.1 ± 1.8
303.15 K, x1 = 0.2492	735.3 ± 1.7	735.7 ± 1.7	739.8 ± 1.7	744.2 ± 1.7	748.3 ± 1.7	752.2 ± 1.7	755.9 ± 1.7	759.5 ± 1.7	762.9 ± 1.8	766.2 ± 1.8
303.15 K, x1 = 0.4999	713.7 ± 1.7	714.1 ± 1.7	718.3 ± 1.7	722.6 ± 1.7	726.7 ± 1.7	730.6 ± 1.7	734.2 ± 1.7	737.7 ± 1.8	741.1 ± 1.8	744.3 ± 1.8
303.15 K, x1 = 0.7503	701.2 ± 1.7	701.5 ± 1.7	705.6 ± 1.7	709.9 ± 1.7	713.9 ± 1.7	717.8 ± 1.7	721.4 ± 1.8	724.9 ± 1.8	728.2 ± 1.8	731.4 ± 1.8
313.15 K, x1 = 0.2492	726.5 ± 1.7	726.9 ± 1.7	731.3 ± 1.7	736 ± 1.7	740.4 ± 1.7	744.5 ± 1.7	748.4 ± 1.7	752.1 ± 1.7	755.7 ± 1.8	759.1 ± 1.8
313.15 K, x1 = 0.4999	705 ± 1.7	705.4 ± 1.7	709.8 ± 1.7	714.5 ± 1.7	718.8 ± 1.7	722.9 ± 1.7	726.8 ± 1.7	730.5 ± 1.8	734 ± 1.8	737.4 ± 1.8
313.15 K, x1 = 0.7503	692.6 ± 1.7	693 ± 1.7	697.4 ± 1.7	702 ± 1.7	706.3 ± 1.7	710.3 ± 1.7	714.1 ± 1.8	717.8 ± 1.8	721.2 ± 1.8	724.6 ± 1.8
323.15 K, x1 = 0.2492	717.4 ± 1.7	717.9 ± 1.7	722.6 ± 1.7	727.6 ± 1.7	732.2 ± 1.7	736.6 ± 1.7	740.7 ± 1.7	744.6 ± 1.7	748.4 ± 1.8	752 ± 1.8
323.15 K, x1 = 0.4999	696 ± 1.7	696.4 ± 1.7	701.2 ± 1.7	706.1 ± 1.7	710.8 ± 1.7	715.1 ± 1.7	719.2 ± 1.8	723.1 ± 1.8	726.8 ± 1.8	730.4 ± 1.8
323.15 K, x1 = 0.7503	683.8 ± 1.7	684.2 ± 1.7	688.9 ± 1.7	693.8 ± 1.7	698.4 ± 1.7	702.7 ± 1.7	706.8 ± 1.8	710.6 ± 1.8	714.2 ± 1.8	717.8 ± 1.8
333.15 K, x1 = 0.2492	708.2 ± 1.7	708.6 ± 1.7	713.7 ± 1.7	719.1 ± 1.7	724 ± 1.7	728.6 ± 1.7	733 ± 1.7	737.1 ± 1.8	741 ± 1.8	744.8 ± 1.8
333.15 K, x1 = 0.4999	686.8 ± 1.8	687.3 ± 1.7	692.4 ± 1.7	697.7 ± 1.7	702.7 ± 1.7	707.3 ± 1.7	711.6 ± 1.8	715.7 ± 1.8	719.6 ± 1.8	723.4 ± 1.8
333.15 K, x1 = 0.7503	674.8 ± 1.7	675.3 ± 1.7	680.4 ± 1.7	685.6 ± 1.7	690.5 ± 1.7	695.1 ± 1.8	699.3 ± 1.8	703.4 ± 1.8	707.2 ± 1.8	710.9 ± 1.8
353.15 K, x1 = 0.2492	–	689 ± 1.7	695 ± 1.7	701.1 ± 1.7	706.8 ± 1.7	712 ± 1.7	716.9 ± 1.7	721.5 ± 1.8	725.8 ± 1.8	730 ± 1.8
353.15 K, x1 = 0.4999	–	667.9 ± 1.7	674 ± 1.7	680.2 ± 1.7	685.8 ± 1.7	691.1 ± 1.7	695.9 ± 1.8	700.5 ± 1.8	704.8 ± 1.8	709 ± 1.8
353.15 K, x1 = 0.7503	–	656.6 ± 1.7	662.6 ± 1.7	668.7 ± 1.7	674.3 ± 1.7	679.5 ± 1.8	684.3 ± 1.8	688.7 ± 1.8	693 ± 1.8	697.1 ± 1.8
373.15 K, x1 = 0.2492	–	667.6 ± 2.7	674.8 ± 2.7	682 ± 2.7	688.6 ± 2.7	694.6 ± 2.7	700.1 ± 2.7	705.2 ± 2.7	710 ± 2.7	714.6 ± 2.8
373.15 K, x1 = 0.4999	–	647.2 ± 2.7	654.4 ± 2.7	661.7 ± 2.7	668.3 ± 2.7	674.3 ± 2.7	679.8 ± 2.7	684.9 ± 2.7	689.7 ± 2.8	694.3 ± 2.8
373.15 K, x1 = 0.7503	–	637 ± 2.7	644.1 ± 2.7	651.2 ± 2.7	657.7 ± 2.7	663.6 ± 2.7	669 ± 2.7	674 ± 2.8	678.7 ± 2.8	683.2 ± 2.8
